Non-standard residues stand in square brackets, D forms with d. Residues, ends and D or L forms follow the SMILES beside them. pS = N[C@@H](COP(=O)(O)O)C(=O)O
Legend:
[1] = system: peripheral T cells from lupus patients; settings: cited from earlier work
MRL/lpr mice = test: Gougerot-Sjögren syndrome model, salivary glands of MRL/lpr mice; format: in vivo, mouse
Protocol: In this study MRL/lpr female 11-12 week old mice were used with 10 mice per group for statistical analysis. Each mouse received a single injection by retro-orbital, 100 μg of peptide P140 of 100 μl in […]. After 5 days, the mouse blood was collected in heparinized tube and salivary glands (GSS) were removed and placed in Eppendorf tubes containing PBS pH 7.4.
The number of foci site (FS) is determined for each mouse. A focus is defined as an aggregate of 50 or more cells.
The level of inflammation SG is determined semiquantitatively by a scoring system (0-3 scale): Grade 0: no inflammatory cells; Grade 1: few perivascular inflammatory and periductal Infiltrates (<100 cells); Grade 2: moderate number of perivascular inflammatory and periductal Infiltrates (100-500 cells); Grade 3: extensive inflammation with inflammatory foci broad (>500 cells).
Cells of total salivary glands stained with fluorescently were labeled antibodies for 40 min at 4° C., Were Collected data by FACSCalibur.
The weight of salivary glands Was Measured after-excision. DNase I (1 mg/ml) and collagenase D (50 μg/ml) were used to digest the salivary glands. Total cell counts were evaluated after the digestion.
The MRL/lpr mice (10 mice per arm) were injected with peptide P140 (100 μl/mouse iv). Five days after injection the mice were sacrificed and SGs collected as indicated above. The tissue was cut by the cryostat sections of 5 μm. The sections were labeled with hematoxylin/eosin staining is the method most frequently used in tissue histology. The level of inflammation and the number of FS were determined (FIGS. 17 and 18). Representative pictures are from sample control group 4 and group Treated sample (Bar 500 μm).

HSC70 protein = target: T1, HSC70 protein (Bos taurus, UniProt P19120); test: BIAcore binding of peptides to immobilized HSC70; design: species or system bovine
T1 construct: purchased Stressgen
T1 sequence (P19120 whole entry): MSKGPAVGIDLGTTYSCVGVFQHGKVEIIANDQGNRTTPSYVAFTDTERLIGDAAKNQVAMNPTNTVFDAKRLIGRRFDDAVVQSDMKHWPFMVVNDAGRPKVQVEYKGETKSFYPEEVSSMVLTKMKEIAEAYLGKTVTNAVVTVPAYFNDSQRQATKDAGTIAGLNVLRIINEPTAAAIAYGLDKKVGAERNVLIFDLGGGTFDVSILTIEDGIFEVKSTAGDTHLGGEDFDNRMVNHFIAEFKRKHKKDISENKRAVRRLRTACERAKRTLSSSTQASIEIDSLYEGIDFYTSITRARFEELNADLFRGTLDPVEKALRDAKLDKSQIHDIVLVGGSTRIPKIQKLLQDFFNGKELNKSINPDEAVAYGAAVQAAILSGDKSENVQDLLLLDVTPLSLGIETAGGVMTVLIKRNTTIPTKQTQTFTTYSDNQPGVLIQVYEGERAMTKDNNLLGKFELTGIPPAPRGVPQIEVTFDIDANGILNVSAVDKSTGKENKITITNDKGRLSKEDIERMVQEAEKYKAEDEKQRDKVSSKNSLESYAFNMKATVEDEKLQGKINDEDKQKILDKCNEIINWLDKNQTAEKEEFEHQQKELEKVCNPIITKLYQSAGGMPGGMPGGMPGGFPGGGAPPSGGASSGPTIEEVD
Protocol: BIAcore 3000 system (Biacore AB) was used to evaluate the binding of P140 peptides to HSC70 protein (Page et al., 2009, and 2011). Sensor chip CM5, surfactant P20, amine coupling kit containing N-hydroxysuccinimide (NHS) and N-ethyl-N′-dimethylaminopropyl carbodiimide (EDC), 2-(2-pyridinyldithio)ethaneamine (PDEA) and ethanolamine were from Biacore AB. Biosensor assays were performed with HBS-EP buffer as running buffer (10 mM HEPES, 150 mM NaCl, 3 mM EDTA, 0.005% surfactant P20, pH 7.4). The compounds were diluted in the running buffer. The sensor chip surface was regenerated after each experiment by injecting 10 μL of 10 mM HCl. Recombinant bovine HSC70 (Stressgen) was immobilized on flow cells of a CM5 sensor chip through its thiol groups using 35 μL PDEA in 50 mM borate buffer, pH 8.3 on the NHS/EDC-activated matrix. Then, 35 μL of HSC70 (100 μg/mL in formate buffer, pH 4.3) were injected until a response of 13,000 response units (RU) corresponding to 13 ng/mm^2 of HSC70 was immobilized. Twenty μL of a 50 mM cysteine/1 M NaCl solution was used to saturate unoccupied sites on the chip. The direct binding measurement of P140 peptides to HSC70 was carried out at 25° C. with a constant flow rate of 20 μL/min. P140 peptide and analogues were injected in the flux at different concentrations for 3 min, followed by a dissociation phase of 3 min. The kinetic parameters were calculated using the BIAeval 3.1 software on a personal computer. Analysis was performed using the simple 1:1 Langmuir binding model. The specific binding profiles were obtained after subtracting the response signal from the control empty channel and from blank-buffer injection. The fitting to each model was judged by the χ^2 value and randomness of residue distribution compared to the theoretical model.

[2] = 5 days after one single iv injection
[3] = 5 days after one single iv injection, flow cytometry

CC[C@H](C)[C@H](NC(=O)[C@H](Cc1ccccc1)NC(=O)[C@H](C)NC(=O)[C@H](Cc1ccc(O)cc1)NC(=O)CNC(=O)[C@H](CCCNC(=N)N)NC(=O)[C@@H]1CCCN1C(=O)[C@H](CCCCN)NC(=O)CNC(=O)[C@H](COP(=O)(O)O)NC(=O)[C@H](CCCNC(=N)N)NC(=O)[C@H](CCCCN)NC(=O)[C@H](CO)NC(=O)[C@H](Cc1ccc(O)cc1)NC(=O)[C@@H](NC(=O)[C@H](CCSC)NC(=O)[C@H](Cc1c[nH]cn1)NC(=O)[C@@H](NC(=O)[C@@H](N)CCCNC(=N)N)[C@@H](C)CC)C(C)C)C(=O)N[C@@H](CCC(=O)O)C(=O)N[C@@H](Cc1ccc(O)cc1)C(=O)O [Compound P140] (H-RIHMVYSKR[pS]GKPRGYAFIEY-OH; N-terminus and C-terminus assumed)
Proliferation of peripheral T cells from lupus patients ([1]; ex vivo (Monneaux et al., 2005)): does not induce proliferation
Secretion of regulatory cytokine IL-10 in cell cultures ([1]; ex vivo, T cells from lupus patients (Monneaux et al., 2005)): high levels
Lymphocytic infiltration in the SGs (MRL/lpr mice; 5 days after one single administration, hematoxylin/eosin): significantly reduced
Total number of cells present in the SGs (MRL/lpr mice; [2]): no apparent effect
Weight of SGs (salivary glands) (MRL/lpr mice; [2]): no statistically significant effect
CD4+T cells in SGs (MRL/lpr mice; [3]): decreased
Total number of B cells in SGs (MRL/lpr mice; [3]): no statistically significant effect
Rmax (RU) (HSC70 protein; 25° C., 1:1 Langmuir model): 83.3 RU
kon (HSC70 protein; 25° C., 1:1 Langmuir model, analyte 1.56-25 μM, read-out: ka): 450 M⁻¹ s⁻¹
Affinity for HSC70, oxidized vs non-oxidized peptide (in words) (HSC70 protein; P140 compared with P140 M(O)): not statistically different
Req (RU) (HSC70 protein; peptide 1.56 μM): 15.3 RU
Req (RU) (HSC70 protein; peptide 3.12 μM): 25.8 RU
Req (RU) (HSC70 protein; peptide 6.25 μM): 39.5 RU
Req (RU) (HSC70 protein; peptide 12.5 μM): 53.6 RU
Req (RU) (HSC70 protein; peptide 25 μM): 65.2 RU
kobs (HSC70 protein; peptide 25 μM): 0.0144 s⁻¹

Reference: patent US20210308211A1, “METHOD OF TREATING VIRAL INFECTIONS” (priority 2020, published 2021)
